# Experimental data: PMC8213057, “Targeting ALK2: An Open Science Approach to Developing Therapeutics for the Treatment of Diffuse Intrinsic Pontine Glioma” (Journal of Medicinal Chemistry, 2020)
# Legend:
# [1] = target: EPHA2 (Homo sapiens, UniProt P29317); experiment: biochemical; settings: read-out: % enzyme activity, 1 μM; Run 1, Run 2
# [2] = target: T1, MEKK2 (Homo sapiens, UniProt Q9Y2U5); experiment: biochemical; settings: read-out: % enzyme activity, 1 μM; Run 1, Run 2
# T1 sequence (Q9Y2U5 1-619): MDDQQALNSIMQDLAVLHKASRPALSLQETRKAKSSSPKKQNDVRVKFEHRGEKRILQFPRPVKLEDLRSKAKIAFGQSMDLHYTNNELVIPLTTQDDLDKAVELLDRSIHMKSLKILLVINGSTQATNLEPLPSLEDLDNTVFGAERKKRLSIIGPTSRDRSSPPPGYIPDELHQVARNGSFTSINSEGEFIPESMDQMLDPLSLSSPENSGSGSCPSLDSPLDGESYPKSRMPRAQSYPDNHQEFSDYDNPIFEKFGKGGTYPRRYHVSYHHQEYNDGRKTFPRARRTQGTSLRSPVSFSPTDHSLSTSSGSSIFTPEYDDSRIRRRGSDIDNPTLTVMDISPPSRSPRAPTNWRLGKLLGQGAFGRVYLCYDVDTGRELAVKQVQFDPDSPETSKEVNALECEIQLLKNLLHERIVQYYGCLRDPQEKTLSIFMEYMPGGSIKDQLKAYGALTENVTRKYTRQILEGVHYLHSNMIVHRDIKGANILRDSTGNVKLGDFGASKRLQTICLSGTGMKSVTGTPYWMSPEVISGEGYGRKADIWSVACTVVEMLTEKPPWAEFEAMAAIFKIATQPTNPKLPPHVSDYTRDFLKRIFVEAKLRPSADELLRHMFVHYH
# [3] = target: T2, HIPK4 (Homo sapiens, UniProt Q8NE63); settings: 1 μM; Run 1, Run 2
# T2 sequence (Q8NE63 1-616): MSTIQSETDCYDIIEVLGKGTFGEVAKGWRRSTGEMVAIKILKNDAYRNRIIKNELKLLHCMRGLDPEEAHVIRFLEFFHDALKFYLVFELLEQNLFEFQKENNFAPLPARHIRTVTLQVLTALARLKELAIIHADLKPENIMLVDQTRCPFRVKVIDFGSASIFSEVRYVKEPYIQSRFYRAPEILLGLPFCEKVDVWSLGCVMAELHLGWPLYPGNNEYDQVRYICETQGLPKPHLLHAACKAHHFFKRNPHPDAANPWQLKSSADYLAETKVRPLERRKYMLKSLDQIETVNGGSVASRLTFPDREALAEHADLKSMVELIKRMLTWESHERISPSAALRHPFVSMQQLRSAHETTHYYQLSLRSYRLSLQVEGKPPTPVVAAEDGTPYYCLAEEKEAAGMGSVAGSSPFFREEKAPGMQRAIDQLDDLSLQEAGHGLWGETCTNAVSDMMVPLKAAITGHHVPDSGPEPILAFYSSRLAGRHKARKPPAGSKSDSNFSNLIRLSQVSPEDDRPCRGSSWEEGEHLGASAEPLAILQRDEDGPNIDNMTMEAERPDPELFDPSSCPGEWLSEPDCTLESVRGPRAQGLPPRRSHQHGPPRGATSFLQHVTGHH
# [4] = target: T3, DMPK (Homo sapiens, UniProt Q09013); settings: 1 μM; Run 1, Run 2
# T3 sequence (Q09013 1-629): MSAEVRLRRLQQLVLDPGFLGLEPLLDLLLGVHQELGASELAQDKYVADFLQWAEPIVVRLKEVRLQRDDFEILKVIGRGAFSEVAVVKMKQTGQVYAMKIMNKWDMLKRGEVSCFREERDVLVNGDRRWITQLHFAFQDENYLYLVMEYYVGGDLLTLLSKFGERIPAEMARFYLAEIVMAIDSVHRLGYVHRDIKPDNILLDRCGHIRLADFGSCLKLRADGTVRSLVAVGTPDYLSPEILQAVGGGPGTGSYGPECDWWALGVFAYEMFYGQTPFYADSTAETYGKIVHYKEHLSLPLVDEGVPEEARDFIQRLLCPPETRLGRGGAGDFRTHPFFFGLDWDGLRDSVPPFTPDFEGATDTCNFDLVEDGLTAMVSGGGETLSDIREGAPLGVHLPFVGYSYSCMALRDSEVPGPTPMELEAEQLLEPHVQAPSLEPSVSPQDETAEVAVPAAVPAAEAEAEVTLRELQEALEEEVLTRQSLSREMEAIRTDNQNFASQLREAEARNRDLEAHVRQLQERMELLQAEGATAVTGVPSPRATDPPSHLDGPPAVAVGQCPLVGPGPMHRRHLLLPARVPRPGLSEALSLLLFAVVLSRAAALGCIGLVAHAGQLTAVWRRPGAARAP
# [5] = target: T4, TNK1 (Homo sapiens, UniProt Q13470); settings: 1 μM; Run 1, Run 2
# T4 sequence (Q13470 1-666): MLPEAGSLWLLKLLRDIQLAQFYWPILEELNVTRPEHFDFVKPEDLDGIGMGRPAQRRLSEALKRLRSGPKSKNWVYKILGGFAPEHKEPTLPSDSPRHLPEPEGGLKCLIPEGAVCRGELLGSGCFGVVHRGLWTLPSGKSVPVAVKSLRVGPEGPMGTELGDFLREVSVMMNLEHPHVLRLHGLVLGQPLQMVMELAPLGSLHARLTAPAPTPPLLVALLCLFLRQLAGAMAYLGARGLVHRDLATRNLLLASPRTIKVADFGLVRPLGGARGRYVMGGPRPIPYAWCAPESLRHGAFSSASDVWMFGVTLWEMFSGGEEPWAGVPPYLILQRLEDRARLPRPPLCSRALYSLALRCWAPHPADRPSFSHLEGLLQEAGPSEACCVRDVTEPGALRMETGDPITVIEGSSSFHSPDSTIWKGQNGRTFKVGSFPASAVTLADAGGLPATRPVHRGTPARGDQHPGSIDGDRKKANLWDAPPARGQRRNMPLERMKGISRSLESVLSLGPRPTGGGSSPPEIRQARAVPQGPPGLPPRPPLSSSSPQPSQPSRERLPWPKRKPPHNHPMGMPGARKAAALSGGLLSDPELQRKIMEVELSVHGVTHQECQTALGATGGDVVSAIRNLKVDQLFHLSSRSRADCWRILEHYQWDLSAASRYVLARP
# [6] = target: GSK3a (Homo sapiens, UniProt P49840); experiment: biochemical; settings: read-out: % enzyme activity, 1 μM; Run 1, Run 2
# [7] = target: p70S6Kb/RPS6KB2 (Homo sapiens, UniProt Q9UBS0); settings: 1 μM; Run 1, Run 2
# Chain of p70S6Kb/RPS6KB2 (Q9UBS0 whole entry): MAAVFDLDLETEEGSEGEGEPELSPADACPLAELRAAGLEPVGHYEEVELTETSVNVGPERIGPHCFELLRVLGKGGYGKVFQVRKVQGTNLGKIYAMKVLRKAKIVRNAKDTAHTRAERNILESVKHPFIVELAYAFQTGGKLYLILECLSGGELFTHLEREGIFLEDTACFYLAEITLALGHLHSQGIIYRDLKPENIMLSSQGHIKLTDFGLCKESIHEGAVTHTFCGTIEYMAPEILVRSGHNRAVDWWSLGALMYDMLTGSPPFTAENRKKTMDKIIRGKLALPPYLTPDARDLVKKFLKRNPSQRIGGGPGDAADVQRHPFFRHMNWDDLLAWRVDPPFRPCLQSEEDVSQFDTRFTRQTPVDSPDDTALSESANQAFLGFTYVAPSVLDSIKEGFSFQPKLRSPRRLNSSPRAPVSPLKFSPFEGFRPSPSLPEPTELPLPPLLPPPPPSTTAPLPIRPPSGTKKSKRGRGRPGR
# Chain of EPHA2 (P29317 24-976): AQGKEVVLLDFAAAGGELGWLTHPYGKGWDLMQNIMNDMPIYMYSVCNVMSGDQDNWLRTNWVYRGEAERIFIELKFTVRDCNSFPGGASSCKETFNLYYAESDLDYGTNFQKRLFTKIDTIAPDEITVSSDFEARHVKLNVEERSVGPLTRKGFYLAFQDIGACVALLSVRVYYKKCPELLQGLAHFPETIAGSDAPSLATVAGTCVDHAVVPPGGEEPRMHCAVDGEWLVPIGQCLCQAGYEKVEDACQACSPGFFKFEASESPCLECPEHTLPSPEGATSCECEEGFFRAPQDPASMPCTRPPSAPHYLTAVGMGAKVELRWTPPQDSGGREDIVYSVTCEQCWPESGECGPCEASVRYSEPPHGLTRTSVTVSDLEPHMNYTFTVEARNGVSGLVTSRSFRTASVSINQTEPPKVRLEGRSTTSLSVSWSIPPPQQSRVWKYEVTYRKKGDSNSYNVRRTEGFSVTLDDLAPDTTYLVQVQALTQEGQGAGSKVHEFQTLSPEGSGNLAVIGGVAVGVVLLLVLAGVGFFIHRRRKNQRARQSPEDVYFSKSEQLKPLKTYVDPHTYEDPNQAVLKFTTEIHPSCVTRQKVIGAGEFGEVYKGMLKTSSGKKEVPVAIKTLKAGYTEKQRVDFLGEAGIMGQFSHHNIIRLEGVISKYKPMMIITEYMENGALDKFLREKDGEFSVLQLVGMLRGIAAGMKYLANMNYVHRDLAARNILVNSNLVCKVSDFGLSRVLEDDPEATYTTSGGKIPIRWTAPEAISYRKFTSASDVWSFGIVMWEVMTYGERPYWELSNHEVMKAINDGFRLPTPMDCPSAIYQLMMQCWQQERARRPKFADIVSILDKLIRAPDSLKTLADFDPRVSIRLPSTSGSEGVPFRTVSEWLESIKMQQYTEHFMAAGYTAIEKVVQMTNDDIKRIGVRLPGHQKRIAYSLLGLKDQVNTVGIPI
# Chain of GSK3a (P49840 whole entry): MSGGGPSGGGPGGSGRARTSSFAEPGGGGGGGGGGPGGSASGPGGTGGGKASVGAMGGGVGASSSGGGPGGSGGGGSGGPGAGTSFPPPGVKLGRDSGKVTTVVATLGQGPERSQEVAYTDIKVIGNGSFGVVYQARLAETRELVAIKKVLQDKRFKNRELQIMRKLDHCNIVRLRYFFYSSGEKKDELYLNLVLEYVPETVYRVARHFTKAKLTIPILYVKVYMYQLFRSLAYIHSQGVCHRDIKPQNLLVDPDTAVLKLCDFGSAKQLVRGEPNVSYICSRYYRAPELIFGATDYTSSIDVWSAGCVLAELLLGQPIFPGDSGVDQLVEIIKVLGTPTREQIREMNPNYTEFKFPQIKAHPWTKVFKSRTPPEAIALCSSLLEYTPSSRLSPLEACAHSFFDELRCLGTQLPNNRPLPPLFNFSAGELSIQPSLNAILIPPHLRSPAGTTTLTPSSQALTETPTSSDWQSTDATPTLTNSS
Compound,remaining activity at 1 µM [1],remaining activity at 1 µM [2],% enzyme activity [3],% enzyme activity [4],% enzyme activity [5],remaining activity at 1 µM [6],% enzyme activity [7]
"COc1cc(-c2cncc(-c3ccc(N4CCN(C)CC4)cc3)c2C)cc(F)c1C(N)=O [Compound 26a, 2-Fluoro-6-methoxy-4-(4-methyl-5-(4-(4-methylpiperazin-1-yl)phenyl)pyridin-3-yl)benzamide]",103%,95%,102.90%,108.75%,99.53%,102%,97.21%
"COc1cc(-c2cncc(-c3ccc(N4C[C@@H](C)N(C)[C@@H](C)C4)cc3)c2C)cc(F)c1C(N)=O [Compound 26c, 2-Fluoro-6-methoxy-4-(4-methyl-5-(4-((3R,5S)-3,4,5-trimethylpiperazin-1-yl)phenyl)pyridin-3-yl)benzamide]",108%,98.8%,97.53%,99.12%,98.22%,102%,99.09%
